Measured values: paper PMC8222254, “Self-assembly of an anion receptor with metal-dependent kinase inhibition and potent in vitro anti-cancer properties” (Nature Communications, 2021)
Values joined by “and” are separate entries in the source; they are usually repeats but may differ in a detail not shown here. Equal values may be shown once.

Tests used:
Assay in all cases: Kinase inhibition screen, cell-free 33P ATP assay at 10 μM
Type in all cases: biochemical
[1] = target: 140 purified human kinases (Homo sapiens, UniProt Q9P289)
140 purified human kinases (Homo sapiens, UniProt Q9P289), sequence (Q9P289 whole entry): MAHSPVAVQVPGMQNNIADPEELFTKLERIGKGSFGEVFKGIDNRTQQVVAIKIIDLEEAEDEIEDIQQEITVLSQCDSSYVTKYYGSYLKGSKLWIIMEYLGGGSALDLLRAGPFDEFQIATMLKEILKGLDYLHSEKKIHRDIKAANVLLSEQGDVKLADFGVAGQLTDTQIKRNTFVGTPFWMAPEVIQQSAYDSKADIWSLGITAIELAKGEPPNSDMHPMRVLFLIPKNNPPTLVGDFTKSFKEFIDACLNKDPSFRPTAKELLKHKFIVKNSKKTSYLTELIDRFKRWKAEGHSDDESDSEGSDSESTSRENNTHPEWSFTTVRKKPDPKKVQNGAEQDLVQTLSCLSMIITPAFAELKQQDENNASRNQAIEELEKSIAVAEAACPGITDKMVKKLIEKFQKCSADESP
Procedure, shortened: (§1)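 Each complex tested in duplicate at 10 μM; cell-free radiometric assay using ^33P ATP on purified enzymes. Hits mapped by HGNC symbol onto the kinome tree.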

[2] = target: 140 purified human kinases (Homo sapiens, UniProt Q02763)
140 purified human kinases (Homo sapiens, UniProt Q02763), sequence (Q02763 23-1124): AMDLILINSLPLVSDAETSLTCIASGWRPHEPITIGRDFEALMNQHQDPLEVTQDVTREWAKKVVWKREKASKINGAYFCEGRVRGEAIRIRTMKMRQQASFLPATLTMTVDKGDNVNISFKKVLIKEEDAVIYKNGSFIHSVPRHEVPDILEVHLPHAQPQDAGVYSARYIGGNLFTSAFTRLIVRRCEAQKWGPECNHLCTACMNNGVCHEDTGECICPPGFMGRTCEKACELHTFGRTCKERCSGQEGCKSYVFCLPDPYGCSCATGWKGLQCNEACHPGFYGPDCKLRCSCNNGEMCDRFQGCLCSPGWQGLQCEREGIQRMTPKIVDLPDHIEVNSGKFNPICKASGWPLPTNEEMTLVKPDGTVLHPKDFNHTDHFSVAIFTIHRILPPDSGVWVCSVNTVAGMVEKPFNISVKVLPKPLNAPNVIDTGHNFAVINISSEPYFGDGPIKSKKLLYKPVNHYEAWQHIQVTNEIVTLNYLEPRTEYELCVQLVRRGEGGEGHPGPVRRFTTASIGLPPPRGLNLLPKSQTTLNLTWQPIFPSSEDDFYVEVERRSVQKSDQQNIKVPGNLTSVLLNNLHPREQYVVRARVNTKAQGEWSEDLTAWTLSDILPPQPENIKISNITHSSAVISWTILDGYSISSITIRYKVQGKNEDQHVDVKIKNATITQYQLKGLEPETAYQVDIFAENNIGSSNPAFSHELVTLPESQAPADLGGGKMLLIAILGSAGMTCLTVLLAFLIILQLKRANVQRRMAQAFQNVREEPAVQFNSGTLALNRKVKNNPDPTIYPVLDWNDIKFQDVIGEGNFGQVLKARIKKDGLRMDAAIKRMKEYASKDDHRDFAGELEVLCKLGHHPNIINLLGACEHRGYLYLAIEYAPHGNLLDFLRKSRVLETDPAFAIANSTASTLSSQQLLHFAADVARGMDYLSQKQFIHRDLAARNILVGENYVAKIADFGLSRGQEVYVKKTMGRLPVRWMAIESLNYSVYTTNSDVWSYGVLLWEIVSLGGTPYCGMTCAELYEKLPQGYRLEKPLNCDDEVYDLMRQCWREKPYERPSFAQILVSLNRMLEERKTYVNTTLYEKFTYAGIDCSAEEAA
Procedure, shortened: as §1

[3] = target: T1, 140 purified human kinases (Homo sapiens, UniProt Q9NWZ3)
T1 sequence (Q9NWZ3 1-460): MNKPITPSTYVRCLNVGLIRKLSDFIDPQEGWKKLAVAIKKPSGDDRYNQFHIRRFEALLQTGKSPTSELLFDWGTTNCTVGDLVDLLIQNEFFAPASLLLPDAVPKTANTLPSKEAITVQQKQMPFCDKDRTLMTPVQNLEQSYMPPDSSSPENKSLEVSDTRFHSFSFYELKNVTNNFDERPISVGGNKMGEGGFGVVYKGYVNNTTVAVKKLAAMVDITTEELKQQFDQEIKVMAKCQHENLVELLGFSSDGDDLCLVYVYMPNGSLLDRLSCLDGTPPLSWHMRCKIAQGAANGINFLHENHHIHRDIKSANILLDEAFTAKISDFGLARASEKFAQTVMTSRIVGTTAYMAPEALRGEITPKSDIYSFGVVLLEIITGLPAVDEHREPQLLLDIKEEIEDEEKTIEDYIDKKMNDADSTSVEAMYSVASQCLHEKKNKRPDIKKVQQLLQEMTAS
Procedure, shortened: as §1

[4] = target: 140 purified human kinases (Homo sapiens, UniProt Q96GD4); details: Aurora B
140 purified human kinases (Homo sapiens, UniProt Q96GD4), sequence (Q96GD4 whole entry): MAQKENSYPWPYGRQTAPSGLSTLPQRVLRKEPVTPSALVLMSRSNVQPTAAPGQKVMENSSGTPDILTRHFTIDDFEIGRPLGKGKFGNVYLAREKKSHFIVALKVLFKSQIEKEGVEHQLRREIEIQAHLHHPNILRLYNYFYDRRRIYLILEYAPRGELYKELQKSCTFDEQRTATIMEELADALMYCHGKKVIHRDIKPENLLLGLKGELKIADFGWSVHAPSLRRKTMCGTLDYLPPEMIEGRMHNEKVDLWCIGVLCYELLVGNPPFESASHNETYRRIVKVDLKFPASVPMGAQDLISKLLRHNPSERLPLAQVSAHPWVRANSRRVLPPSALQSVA
Procedure, shortened: as §1

[5] = target: 140 purified human kinases (Homo sapiens, UniProt P06213); details: IR
140 purified human kinases (Homo sapiens, UniProt P06213), sequence (P06213 28-1382): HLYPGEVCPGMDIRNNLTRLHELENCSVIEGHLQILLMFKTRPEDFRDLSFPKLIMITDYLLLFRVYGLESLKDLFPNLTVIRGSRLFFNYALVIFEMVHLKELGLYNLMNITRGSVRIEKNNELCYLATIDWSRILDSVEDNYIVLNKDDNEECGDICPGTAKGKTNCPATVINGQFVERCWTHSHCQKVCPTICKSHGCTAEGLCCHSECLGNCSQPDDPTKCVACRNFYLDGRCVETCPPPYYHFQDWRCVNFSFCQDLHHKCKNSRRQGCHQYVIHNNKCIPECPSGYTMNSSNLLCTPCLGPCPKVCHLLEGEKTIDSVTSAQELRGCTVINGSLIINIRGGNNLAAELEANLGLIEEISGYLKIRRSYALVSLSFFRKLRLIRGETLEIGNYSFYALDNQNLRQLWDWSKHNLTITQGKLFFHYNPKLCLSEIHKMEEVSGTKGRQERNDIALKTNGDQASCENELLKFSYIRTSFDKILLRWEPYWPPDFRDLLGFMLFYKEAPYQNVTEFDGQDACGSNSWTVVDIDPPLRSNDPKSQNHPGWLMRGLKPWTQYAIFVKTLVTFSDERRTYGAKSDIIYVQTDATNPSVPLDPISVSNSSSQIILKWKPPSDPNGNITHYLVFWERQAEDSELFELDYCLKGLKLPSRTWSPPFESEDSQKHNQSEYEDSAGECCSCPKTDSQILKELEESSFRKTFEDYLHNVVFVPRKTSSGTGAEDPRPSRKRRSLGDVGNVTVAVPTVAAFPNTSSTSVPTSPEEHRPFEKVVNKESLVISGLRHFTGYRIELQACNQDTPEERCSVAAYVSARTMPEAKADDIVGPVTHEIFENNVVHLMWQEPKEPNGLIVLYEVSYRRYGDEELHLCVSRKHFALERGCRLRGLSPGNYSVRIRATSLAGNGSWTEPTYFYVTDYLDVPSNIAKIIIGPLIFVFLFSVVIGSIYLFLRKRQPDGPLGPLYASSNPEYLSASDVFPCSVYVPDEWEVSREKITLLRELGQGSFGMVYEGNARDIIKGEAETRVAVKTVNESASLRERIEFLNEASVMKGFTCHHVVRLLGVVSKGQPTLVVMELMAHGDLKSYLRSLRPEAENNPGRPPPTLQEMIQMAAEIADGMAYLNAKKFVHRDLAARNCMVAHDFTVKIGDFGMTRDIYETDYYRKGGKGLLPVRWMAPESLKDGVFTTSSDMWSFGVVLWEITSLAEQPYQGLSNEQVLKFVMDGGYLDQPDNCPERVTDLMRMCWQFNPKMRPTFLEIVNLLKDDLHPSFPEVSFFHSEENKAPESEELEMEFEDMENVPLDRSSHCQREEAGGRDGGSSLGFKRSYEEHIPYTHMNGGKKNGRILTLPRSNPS
Procedure, shortened: as §1

[6] = target: T2, 140 purified human kinases (Homo sapiens, UniProt Q9UHD2)
T2 sequence (Q9UHD2 1-729): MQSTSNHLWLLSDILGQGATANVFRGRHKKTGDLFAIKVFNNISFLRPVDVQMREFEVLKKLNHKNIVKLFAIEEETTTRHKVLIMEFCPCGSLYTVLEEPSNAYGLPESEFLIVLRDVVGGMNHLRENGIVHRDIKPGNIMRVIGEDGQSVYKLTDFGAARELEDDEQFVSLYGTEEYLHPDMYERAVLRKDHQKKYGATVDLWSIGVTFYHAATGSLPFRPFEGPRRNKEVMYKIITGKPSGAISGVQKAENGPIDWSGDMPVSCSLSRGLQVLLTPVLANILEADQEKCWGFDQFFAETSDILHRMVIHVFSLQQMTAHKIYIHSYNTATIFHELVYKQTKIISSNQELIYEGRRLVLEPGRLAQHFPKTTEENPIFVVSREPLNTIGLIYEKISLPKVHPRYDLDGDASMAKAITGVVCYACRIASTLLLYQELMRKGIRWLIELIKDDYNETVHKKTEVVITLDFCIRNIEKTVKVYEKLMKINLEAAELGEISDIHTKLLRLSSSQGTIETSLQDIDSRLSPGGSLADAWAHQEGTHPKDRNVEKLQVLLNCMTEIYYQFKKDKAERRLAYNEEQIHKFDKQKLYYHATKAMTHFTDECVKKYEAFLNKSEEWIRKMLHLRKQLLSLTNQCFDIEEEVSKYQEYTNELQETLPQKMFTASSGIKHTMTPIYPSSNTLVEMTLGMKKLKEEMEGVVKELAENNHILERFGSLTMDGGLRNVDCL
Procedure, shortened: as §1

[7] = target: 140 purified human kinases (Homo sapiens, UniProt P17252); details: PKCa
Procedure, shortened: as §1

[8] = target: 140 purified human kinases (Homo sapiens, UniProt Q13233)
Procedure, shortened: as §1

[9] = target: 140 purified human kinases (Homo sapiens, UniProt Q9Y4K4)
140 purified human kinases (Homo sapiens, UniProt Q9Y4K4), sequence (Q9Y4K4 whole entry): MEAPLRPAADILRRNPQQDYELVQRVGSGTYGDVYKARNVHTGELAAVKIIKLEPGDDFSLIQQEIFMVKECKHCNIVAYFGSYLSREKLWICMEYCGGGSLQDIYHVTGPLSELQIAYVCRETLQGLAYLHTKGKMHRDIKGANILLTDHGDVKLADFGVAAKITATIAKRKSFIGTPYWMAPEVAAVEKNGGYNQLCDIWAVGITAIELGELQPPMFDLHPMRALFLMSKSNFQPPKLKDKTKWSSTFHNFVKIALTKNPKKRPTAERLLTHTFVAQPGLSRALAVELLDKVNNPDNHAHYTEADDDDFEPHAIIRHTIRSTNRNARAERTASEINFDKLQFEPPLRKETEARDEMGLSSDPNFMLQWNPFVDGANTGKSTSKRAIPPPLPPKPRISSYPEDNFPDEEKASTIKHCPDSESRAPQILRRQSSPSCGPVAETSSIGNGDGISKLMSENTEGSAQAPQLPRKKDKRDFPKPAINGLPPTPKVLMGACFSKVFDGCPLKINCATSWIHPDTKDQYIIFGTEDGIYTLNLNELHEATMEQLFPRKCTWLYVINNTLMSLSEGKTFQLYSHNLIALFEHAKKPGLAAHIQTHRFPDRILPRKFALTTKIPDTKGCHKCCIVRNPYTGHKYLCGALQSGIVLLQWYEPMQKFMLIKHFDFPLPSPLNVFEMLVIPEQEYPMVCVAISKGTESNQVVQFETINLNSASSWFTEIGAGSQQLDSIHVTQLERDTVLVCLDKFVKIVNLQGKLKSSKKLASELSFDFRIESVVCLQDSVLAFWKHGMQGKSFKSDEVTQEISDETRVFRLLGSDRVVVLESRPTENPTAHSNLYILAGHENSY
Procedure, shortened: as §1

[10] = target: T3, 140 purified human kinases (Homo sapiens, UniProt Q9BXA7)
T3 sequence (Q9BXA7 1-367): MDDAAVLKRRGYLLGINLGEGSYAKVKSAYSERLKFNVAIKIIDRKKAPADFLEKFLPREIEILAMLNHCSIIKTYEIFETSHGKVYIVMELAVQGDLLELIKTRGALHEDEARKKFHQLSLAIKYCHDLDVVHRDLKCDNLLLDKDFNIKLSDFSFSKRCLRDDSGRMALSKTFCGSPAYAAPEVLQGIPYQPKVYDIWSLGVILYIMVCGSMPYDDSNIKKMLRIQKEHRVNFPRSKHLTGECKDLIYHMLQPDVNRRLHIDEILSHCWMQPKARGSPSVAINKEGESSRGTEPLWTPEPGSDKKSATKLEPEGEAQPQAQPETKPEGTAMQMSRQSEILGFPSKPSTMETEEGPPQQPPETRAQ
Procedure, shortened: as §1

[Cu+2].[Cu+2].[Cu+2].c1ccc(-c2csc(NCCN(CCNc3nc(-c4ccccn4)cs3)CCNc3nc(-c4ccccn4)cs3)n2)nc1.c1ccc(-c2csc(NCCN(CCNc3nc(-c4ccccn4)cs3)CCNc3nc(-c4ccccn4)cs3)n2)nc1 [[L2Cu3]6+]
% Inhibition Run 1 ([1]; MST4): 74.5%
% Inhibition Run 2 ([1]; MST4): 70.2%
% Inhibition, Mean ([1]; MST4): 72%
mean % activity ([1]; MST4): 28%
% activity ([1]; MST4, Run 1): 25.5%
% activity ([1]; MST4, Run 2): 29.8%
% Inhibition Run 1 ([2]; TIE2): 73.2%
% Inhibition Run 2 ([2]; TIE2): 55%
% Inhibition, Mean ([2]; TIE2): 64%
mean % activity ([2]; TIE2): 36%
% activity ([2]; TIE2, Run 1): 26.8%
% activity ([2]; TIE2, Run 2): 45%
% Inhibition Run 1 ([3]; IRAK4): 53.9%
% Inhibition Run 2 ([3]; IRAK4): 65.2%
% Inhibition, Mean ([3]; IRAK4): 60%
mean % activity ([3]; IRAK4): 40%
% activity ([3]; IRAK4, Run 1): 46.1%
% activity ([3]; IRAK4, Run 2): 34.8%
% Inhibition Run 1 [4]: 92.4%
% Inhibition Run 2 [4]: 91.3%
% Inhibition, Mean [4]: 92%
mean % activity [4]: 8%
% activity ([4]; Run 1): 7.6%
% activity ([4]; Run 2): 8.7%
% Activity inhibition Mean ([4]; 10 µM): 91.9%
% Activity inhibition Run 1 ([4]; 10 µM): 92.4%
% Activity inhibition Run 2 ([4]; 10 µM): 91.3%
% Activity remaining Run 1 ([4]; 10 µM): 7.60%
% Activity remaining Run 2 ([4]; 10 µM): 8.70%
% Inhibition Run 1 [5]: 20%
% Inhibition Run 2 [5]: 18.1%
% Inhibition, Mean [5]: 19%
mean % activity [5]: 81%
% activity ([5]; Run 1): 80%
% activity ([5]; Run 2): 81.9%
% Inhibition Run 1 ([6]; TBK1): 60.3%
% Inhibition Run 2 ([6]; TBK1): 64%
% Inhibition, Mean ([6]; TBK1): 62%
mean % activity ([6]; TBK1): 38%
% activity ([6]; TBK1, Run 1): 39.7%
% activity ([6]; TBK1, Run 2): 36%
% Inhibition Run 1 [7]: 45.4%
% Inhibition Run 2 [7]: 66.7%
% Inhibition, Mean [7]: 56%
mean % activity [7]: 44%
% activity ([7]; Run 1): 54.6%
% activity ([7]; Run 2): 33.3%
% Inhibition Run 1 ([8]; MEKK1): 48.4%
% Inhibition Run 2 ([8]; MEKK1): 57.6%
% Inhibition, Mean ([8]; MEKK1): 53%
mean % activity ([8]; MEKK1): 47%
% activity ([8]; MEKK1, Run 1): 51.6%
% activity ([8]; MEKK1, Run 2): 42.4%
% Inhibition Run 1 ([9]; MAP4K5): 54.5%
% Inhibition Run 2 ([9]; MAP4K5): 51.4%
% Inhibition, Mean ([9]; MAP4K5): 53%
mean % activity ([9]; MAP4K5): 47%
% activity ([9]; MAP4K5, Run 1): 45.5%
% activity ([9]; MAP4K5, Run 2): 48.6%
% Inhibition Run 1 ([10]; TSSK1): 44%
% Inhibition Run 2 ([10]; TSSK1): 46.8%
% Inhibition, Mean ([10]; TSSK1): 45%
mean % activity ([10]; TSSK1): 55%
% activity ([10]; TSSK1, Run 1): 56%
% activity ([10]; TSSK1, Run 2): 53.2%

CC(=O)[O-].CC(=O)[O-].CC(=O)[O-].CC(=O)[O-].CC(=O)[O-].CC(=O)[O-].[Zn+2].[Zn+2].[Zn+2].c1ccc(-c2csc(NCCN(CCNc3nc(-c4ccccn4)cs3)CCNc3nc(-c4ccccn4)cs3)n2)nc1.c1ccc(-c2csc(NCCN(CCNc3nc(-c4ccccn4)cs3)CCNc3nc(-c4ccccn4)cs3)n2)nc1 [[L2Zn3]6+]
% Inhibition, Mean ([1]; MST4): 23%
% Inhibition, Run 1 / Run 2 ([1]; MST4): 26% and 19%
mean % activity ([1]; MST4): 77%
% activity ([1]; MST4, duplicate runs): 74% and 81%
% Inhibition, Mean ([2]; TIE2): 85%
% Inhibition, Run 1 / Run 2 ([2]; TIE2): 92% and 78%
mean % activity ([2]; TIE2): 15%
% Activity inhibition Mean ([2]; TIE2, 10 µM): 84.5%
% Activity inhibition Run 1 ([2]; TIE2, 10 µM): 92%
% Activity inhibition Run 2 ([2]; TIE2, 10 µM): 77%
% Activity remaining Run 1 ([2]; TIE2, 10 µM): 8%
% Activity remaining Run 2 ([2]; TIE2, 10 µM): 23%
% Inhibition, Mean ([3]; IRAK4): 10%
% Inhibition, Run 1 / Run 2 ([3]; IRAK4): 13% and 7%
mean % activity ([3]; IRAK4): 90%
% activity ([3]; IRAK4, duplicate runs): 87% and 93%
% Inhibition, Mean [4]: 50%
% Inhibition, Run 1 / Run 2 [4]: 54% and 46%
mean % activity [4]: 50%
% activity ([4]; duplicate runs): 46% and 54%
% Inhibition, Mean [5]: 12%
mean % activity [5]: 88%
% activity ([5]; duplicate runs): 80% and 95%
% Inhibition, Mean ([6]; TBK1): 13%
mean % activity ([6]; TBK1): 87%
% activity ([6]; TBK1, duplicate runs): 81% and 93%
% Inhibition, Mean [7]: 42%
% Inhibition, Run 1 / Run 2 [7]: 45% and 40%
mean % activity [7]: 58%
% activity ([7]; duplicate runs): 56% and 60%
% Inhibition, Mean ([8]; MEKK1): 17%
mean % activity ([8]; MEKK1): 83%
% activity ([8]; MEKK1, duplicate runs): 75% and 92%
% Inhibition, Mean ([9]; MAP4K5): 60%
% Inhibition, Run 1 / Run 2 ([9]; MAP4K5): 60% and 59%
mean % activity ([9]; MAP4K5): 40%
% activity ([9]; MAP4K5, duplicate runs): 40% and 41%
% Inhibition, Mean ([10]; TSSK1): 27%
% Inhibition, Run 1 / Run 2 ([10]; TSSK1): 29% and 24%
mean % activity ([10]; TSSK1): 73%
% activity ([10]; TSSK1, duplicate runs): 71% and 76%
